Measurements taken from patent US8354443B2, “Cyclopropane indolinone derivatives” (Hoffmann-La Roche Inc., priority 2009, dated 2013).

system: recombinant AMPK proteins (α1β1γ1, α2β1γ1, α1(1-335), α1(1-394) or α2(1-394)); assay: Scintillation Proximity Assay (AMPK activation); format: biochemical, human; details: effective concentration of activator for 50% of maximal enzyme activity; 2 hr at 30° C.; AMPK form not specified
Excerpt: Recombinant human AMPK α1β1γ1, α2β1γ1 or AMPK a subunit truncations α1 (1-335), α1 (1-394) and α2(1-394) were constructed, expressed and purified as described previously (Pang, T., Zhang, Z. S., Gu, M., Qiu, B. Y., Yu, L. F., Cao, P. R., Shao, W., Su, M. B., Li, J. Y., Nan, F. J., and Li, J. (2008) or purchased from Invitrogen (San Diego, Calif., U.S.A.). Rat liver AMPK heterotrimer enzyme was obtained from Upstate (Billerica, Mass., U.S.A.).
Before the Scintillation Proximity Assay (SPA) assay, 200 nM recombinant AMPK proteins (α1β1γ1, α2β1γ1, α1(1-335), α1(1-394) or α2(1-394)) were fully phosphorylated as described previously (Pang et al., 2008). SPA reactions were performed in 96-well plates at a final volume of 50 μl containing 20 mM Tris-HCl pH 7.5, 5 mM MgCl2, 1 mM DTT, 2 μM biotin-SAMS, 2 μM ATP, 0.2 μCi/well [γ-^33P]ATP, and various amount of activator. Reactions were initiated by the addition of 50 nM recombinant AMPK proteins to the reaction solutions and incubated at 30° C. for 2 hr. After that, reactions were terminated by the addition of 40 μl stop solution containing 80 μg streptavidin-coated SPA beads per well, 50 mM EDTA, 0.1% Triton X-100 in PBS, pH 7.5 and incubated for 1 hr. Finally, a 160 μl suspension solution containing 2.4 M CsCl, 50 mM EDTA, and 0.1% Triton X-100 in PBS (pH 7.5) was added to the reaction solution to suspend SPA beads completely. SPA signals were determined with a Wallac MicroBeta plate counter (PerkinElmer) 30 min later for calculation of the amount of product formed. The amount of products formed in 2 hr was plotted against activator concentrations to determine the effective concentration of the activator (EC50) required for 50% of maximal enzyme activity.

| EC50 [µM] | Structure (SMILES) |
| --- | --- |
| 1.84 | CN(C)CCN1CCN(C(=O)c2cccc(CN3C(=O)[C@@]4(C[C@H]4c4ccc(Cl)cc4)c4ccccc43)c2)CC1 (racemic) [Example 113, (1R,2S) and (1S,2R)-2-(4-chlorophenyl)-1′-(3-(4-(2-(dimethylamino)ethyl)piperazine-1-carbonyl)benzyl)spiro[cyclopropane-1,3′-indolin]-2′-one] |
| 2.04 | O=C1N(CCNCCN2CCOCC2)c2ccccc2[C@@]12C[C@@H]2c1ccc(Cl)cc1 (racemic) [Example 128, (1S,2R) and (1R,2S)-2-(4-chlorophenyl)-1′-(2-(2-morpholinoethylamino)ethyl) spiro[cyclopropane-1,3′-indolin]-2′-one] |
| 8.8 | CC(C)N1CCN(CCN2C(=O)[C@]3(C[C@@H]3c3ccc(Cl)cc3)c3ccccc32)CC1 (racemic) [Example 74, (1S,2R) and (1R,2S)-2-(4-chlorophenyl)-1′-(2-(4-isopropylpiperazin-1-yl)ethyl)spiro [cyclopropane-1,3′-indolin]-2′-one] |
| 2.17 | CN(C)[C@@H]1CCN(CCN2C(=O)[C@@]3(C[C@H]3c3ccc(Cl)cc3)c3ccccc32)C1 (mixture of isomers) [Example 77, (1S,2R)-2-(4-chlorophenyl)-1′-(2-((R)-3-(dimethylamino)pyrrolidin-1-yl)ethyl)spiro[cyclopropane-1,3′-indolin]-2′-one and (1R,2S)-2-(4-chlorophenyl)-1′-(2-((R)-3-(dimethylamino)pyrrolidin-1-yl)ethyl)spiro[cyclopropane-1,3′-indolin]-2′-one] |
| 2.29 | Cc1cc(NC(=O)c2cccc(CN3C(=O)[C@@]4(C[C@H]4c4ccc(Cl)cc4)c4ccccc43)c2)[nH]n1 (racemic) [Example 67, (1R,2S) and (1S,2R)-3-((2-(4-chlorophenyl)-2′-oxospiro[cyclopropane-1,3′-indoline]-1′-yl)methyl)-N-(3-methyl-1 H-pyrazol-5-yl)benzamide] |
| 1.54 | O=C1N(CC2CCOCC2)c2ccccc2[C@@]12C[C@@H]2c1ccc(Cl)cc1 (racemic) [Example 70, (1S,2R) and (1R,2S)-2-(4-chlorophenyl)-1′-((tetrahydro-2 H-pyran-4-yl)methyl)spiro[cyclopropane-1,3′-indolin]-2′-one] |
| 2.57 | O=C(O)c1cccc(CN2C(=O)[C@@]3(C[C@H]3c3ccc(Cl)cc3)c3ccccc32)c1 (racemic) [Example 1, (1R,2S) and (1S,2R)-3-((2-(4-chlorophenyl)-2′-oxospiro[cyclopropane-1,3′-indoline]-1′-yl)methyl)benzoic acid] |
| 1.73 | CN1CCN(C(=O)c2cccc(N3C(=O)[C@]4(C[C@H]4c4ccc(Cl)cc4)c4ccccc43)c2)CC1 (racemic) [Example 86, (1S,2S) and (1R,2R)-2-(4-chlorophenyl)-1′-(3-(4-methylpiperazine-1-carbonyl)phenyl) Spiro[cyclopropane-1,3′-indolin]-2′-one] |
| 2.59 | O=C(O)c1cccc(N2C(=O)[C@]3(C[C@@H]3c3ccc(Cl)cc3)c3ccccc32)c1 (racemic) [Example 83, (1S,2R) and (1R,2S)-3-(2-(4-chlorophenyl)-2′-oxospiro[cyclopropane-1,3′-indoline]-1′-yl)benzoic acid] |
| 7.1 | O=C(O)c1cc(CN2C(=O)[C@]3(C[C@@H]3c3ccc(Cl)cc3)c3ccccc32)ccc1Cl (racemic) [Example 6, (1S,2R) and (1R,2S)-2-chloro-5-((2-(4-chlorophenyl)-2′-oxospiro[cyclopropane-1,3′-indoline]-1′-yl)methyl)benzoic acid] |
| 1.09 | CN(C)[C@H]1CCN(CCN2C(=O)[C@]3(C[C@@H]3c3ccc(Cl)cc3)c3ccccc32)C1 (mixture of isomers) [Example 76, (1S,2R)-2-(4-chlorophenyl)-1′-(2-((S)-3-(dimethylamino)pyrrolidin-1-yl)ethyl)spiro[cyclopropane-1,3′-indolin]-2′-one and (1R,2S)-2-(4-chlorophenyl)-1′-(2-((S)-3-(dimethylamino)pyrrolidin-1-yl)ethyl)spiro[cyclopropane-1,3′-indolin]-2′-one] |
| 10.8 | CS(=O)(=O)c1ccc([C@H]2C[C@]23C(=O)N(Cc2cccc(C(=O)O)c2)c2ccccc23)cc1 (racemic) [Example 7, (1S,2R) and (1R,2S)-3-((2-(4-(methylsulfonyl)phenyl)-2′-oxospiro[cyclopropane-1,3′-indoline]-1′-yl)methyl)benzoic acid] |
| 0.95 | O=C(c1cccc(N2C(=O)[C@]3(C[C@H]3c3ccc(Cl)cc3)c3ccccc32)c1)N1CCOCC1 (racemic) [Example 85, (1S,2S) and (1R,2R)-2-(4-chlorophenyl)-1′-(3-(morpholine-4-carbonyl)phenyl)spiro [cyclopropane-1,3′-indolin]-2′-one] |
| 1.66 | COc1cccc([C@H]2C[C@]23C(=O)N(Cc2cccc(C(=O)O)c2)c2ccccc23)c1 (racemic) [Example 18, (1S,2R) and (1R,2S)-3-((2-(3-methoxyphenyl)-2′-oxospiro[cyclopropane-1,3′-indoline]-1′-yl)methyl)benzoic acid] |
| 4.2 | O=C1N(Cc2ccncc2)c2ccccc2[C@]12C[C@H]2c1ccc(Cl)cc1 (racemic) [Example 78, (1R,2S) and (1S,2R)-2-(4-chlorophenyl)-1′-(pyridin-4-ylmethyl)spiro[cyclopropane-1,3′-indolin]-2′-one] |
| 5.14 | CS(=O)(=O)N1CCN(C(=O)c2cccc(CN3C(=O)[C@@]4(C[C@H]4c4ccc(Cl)cc4)c4ccccc43)c2)CC1 (racemic) [Example 115, (1R,2S) and (1S,2R)-2-(4-chlorophenyl)-1′-(3-(4-(methylsulfonyl)piperazine-1-carbonyl)benzyl)spiro[cyclopropane-1,3′-indolin]-2′-one] |
| 4.33 | O=C(Nc1cc(C2CC2)n[nH]1)c1cccc(CN2C(=O)[C@]3(C[C@@H]3c3ccc(Cl)cc3)c3ccccc32)c1 (racemic) [Example 116, (1S,2R) and (1R,2S)-3-((2-(4-chlorophenyl)-2′-oxospiro[cyclopropane-1,3′-indoline]-1′-yl)methyl)-N-(3-cyclopropyl-1H-pyrazol-5-yl)benzamide] |
| 5.75 | O=C(O)c1cccc(CN2C(=O)[C@]3(C[C@@H]3c3ccc(F)cc3)c3ccccc32)c1 (racemic) [Example 24, (1S,2R) and (1R,2S)-3-((-2-(4-fluorophenyl)-2′-oxospiro[cyclopropane-1,3′-indoline]-1′-yl)methyl)benzoic acid] |
| 0.91 | CS(=O)(=O)c1cc(C(=O)O)cc(N2C(=O)[C@]3(C[C@H]3c3ccc(Cl)cc3)c3ccccc32)c1 (racemic) [Example 93, (1S,2S) and (1R,2R)-3-(2-(4-chlorophenyl)-2′-oxospiro[cyclopropane-1,3′-indoline]-1′-yl)-5-(methylsulfonyl)benzoic acid] |
| 2.48 | O=C(O)c1cccc(CN2C(=O)[C@@]3(C[C@@H]3c3ccc(Cl)cc3)c3cc(Br)ccc32)c1 (racemic) [Example 15, (1R,2R) and (1S,2S)-3-((5′-bromo-2-(4-chlorophenyl)-2′-oxospiro[cyclopropane-1,3′-indoline]-1′-yl)methyl)benzoic acid] |
| 1.19 | O=C(O)c1cccc(CN2C(=O)[C@]3(C[C@H]3c3ccccc3F)c3ccccc32)c1 (mixture of isomers) [Example 9, (1S,2S) and (1R,2R)-3-((2-(2-fluorophenyl)-2′-oxospiro[cyclopropane-1,3′-indoline]-1′-yl)methyl)benzoic acid] |
| 2.6 | O=C1N(Cc2cccnc2)c2ccccc2[C@@]12C[C@@H]2c1ccc(Cl)cc1 (racemic) [Example 79, (1S,2R) and (2R,1S)-2-(4-chlorophenyl)-1′-(pyridin-3-ylmethyl)spiro[cyclopropane-1,3′-indolin]-2′-one] |
| 1.5 | O=C(O)c1cc(N2CCCC2=O)cc(N2C(=O)[C@]3(C[C@H]3c3ccc(Cl)cc3)c3ccccc32)c1 (racemic) [Example 94, (1S,2S) and (1R,2R)-3-(2-(4-chlorophenyl)-2′-oxospiro[cyclopropane-1,3′-indoline]-1′-yl)-5-(2-oxopyrrolidin-1-yl)benzoic acid] |

| Structure (SMILES) | EC50 [µM] |
| --- | --- |
| O=C(c1cccc(CN2C(=O)[C@]3(C[C@@H]3c3ccc(Cl)cc3)c3ccccc32)c1)N1CCCCC1 (racemic) [Example 60, (1S,2R) and (1R,2S)-2-(4-chlorophenyl)-1′-(3-(piperidine-1-carbonyl)benzyl) Spiro[cyclopropane-1,3′-indolin]-2′-one] | 3.5 |
